Usually viability stands for a read-out of living cells in per cent, often relative to untreated cells. One may read the Papp A→B as the apparent permeability from the apical to the basolateral side of a cell layer. By Papp B→A is commonly meant how fast a substance crosses the layer from the basolateral side. As a reminder, the microsomal CLint is the rate of metabolic loss divided by the concentration.

Where two headings read alike, the source gives them in different places.

The values that follow come from paper PMC11215778 (Journal of Medicinal Chemistry, 2024).

The nature of series [1]: Plasma stability assay, rat plasma. Format: in vitro ADME.
Series [2] is described as follows: Plasma stability assay, human plasma. The class given is in vitro ADME. Particulars: pooled plasma, read-out: Plasma stability % remaining at 6 h, hum. As to the method: […] The reactions were terminated by adding 4 vol of ice-cold methanol, and the samples were then mixed vigorously, frozen at −20 °C for 1 h, and left overnight at 8 °C. After that, the samples were centrifuged, and the supernatant was analyzed by means of LC–MS/MS Sciex 6500 triple quadrupole (Sciex, Framingham, MA, USA). Zero time points were prepared by adding ice-cold methanol to the compound prior to the addition of the plasma.

Series [3] in a line: Cytotoxicity assay (CellTiter-Glo) on normal human dermal fibroblasts. The class given is cell-based. Particulars: normal human dermal fibroblasts (NHDF). The procedure: The cytotoxicity of the compounds was evaluated in nontumor normal human dermal fibroblasts (NHDF) purchased from ATCC (PCS-201-012, Manassas, VA, USA). The cells were negatively tested for the presence of mycoplasma (cat. #: LT07-318 MycoAlert Mycoplasma Detection kit, Lonza). The cells were cultivated in DMEM high glucose 4.5 g/L medium (cat. #: R8758, Merck, Germany). The medium was supplemented with 10% fetal bovine serum (cat. #: F7524, Merck, Germany; inactivated at 56 °C for 30 min) and 1.0% of L-glutamine (cat. #: G7513, Merck, Germany) without antibiotics. Cells were seeded in 384-well format white micro plates (cat. #: 164610, Nunc, Thermo Fisher Scientific, USA) at a concentration of 60,000 cells per mL and left to rest overnight. Next day, 1 and 10 μM concentrations of the tested compounds were added in triplicates. The cells were cultivated at 37 °C and 5% CO2 for 72 h after which a luminescent cell viability assay (CellTiter-Glo 2.0, cat. #: Promega, Madison, USA) was added. The plate was left on a shaker (350 rpm) in the dark for 20 min at RT. Luminescence was measured by a Spark multimode reader from Tecan (Tecan Group Ltd., Switzerland). The signal of the compound-treated cells was related to the value of the untreated control, which was arbitrarily set to 100% viability.
(In ATP-based viability assays light output follows the ATP content of the culture.)

Another series can be described thus: in vitro. Format: in vitro ADME. Particulars: human, Caco-2; for Papp A→B at 3 h, 5 µM: read-out: Caco-2 permeability Papp A–B. The procedure:
A Transwell system consisting of two compartments separated by a monolayer of differentiated Caco-2 cells was employed for the intestinal permeability evaluation. Thanks to the ability of Caco-2 cells to become polarized, bidirectional transport (A–B and B–A) could be measured and the efflux ratio calculated.
The transepithelial bidirectional transport of tested compounds (5 μM, pH 7.4/7.4) across the Caco-2 monolayers was studied using the BD BioCoat HTS Caco-2 assay system (BD Biosciences, Bedford, MA) as described in detail elsewhere.[47] Aliquots were collected from the donor and acceptor compartment at the end of the transport period (3 h), the integrity of monolayers was verified using Lucifer Yellow dye, and the compounds were quantified using LC–MS/MS (Triple Quad 6500+, Sciex). The apparent permeability coefficient (Papp) was calculated from the following equation: Papp = (dQ/dt)/C0 × A, where dQ/dt is the rate of absorption of the drug across the cells, C0 is the donor compartment concentration at time zero, and A is the area of the monolayer. The efflux ratio was expressed as (Papp B–A)/(Papp A–B). Recovery (%) was determined as (total compound mass in donor and receiver compartments at the end of the incubation/initial compound mass in the donor compartment) × 100.
On the technique in general: Caco-2 cells form a polarised layer with tight junctions and transporters.

The nature of series [4]: Microsomal stability, rat liver microsomes. The class given is in vitro ADME. Particulars: pH 7.4; rat liver microsomes. The procedure:
(§1) . Zero time points were prepared by adding ice-cold methanol to a mixture of the compound with cofactors prior to the addition of microsomes. […]. Intrinsic clearance (CLint) was calculated using the following formula: [drawing 1] where V = incubation volume per milligram of microsomal protein (μL/mg) and t1/2 = microsomal half-life.
A general note: Microsomes from liver hold many membrane-bound enzymes, among them those of drug oxidation.

Series [5] is described as follows: Microsomal stability, human liver microsomes. The class given is in vitro ADME. Particulars: pooled liver microsomes, pH 7.4; human liver microsomes 0.5 mg/mL, 10 μM compound; read-out: Microsomal stability CLint, hum. As to the method: as §1
Setting [6] is: 10 uM, read-out: NHDF viability at 10 uM (supplement csv).
Setting [7] is: 10 μM, untreated control = 100%, read-out: NHDF Viability 10 μM.

Consider `O=C(OC[C@H]1CCCN1)[C@@H]1[C@H]2C[C@H]3c4[nH]c5ccccc5c4CCN3C[C@@H]2CC[C@@H]1O` [Compound 4a, 17-α-Hydroxyyohimban-16-α-carboxylic acid (R)-Pyrrolidin-2-ylmethyl Ester], for which the share remaining at 6 h, 5 μM in series [1] stood at 68%; in series [2] (human plasma, 5 μM, 37 °C), 88%. Also, in series [3], the viability at 72 h, 1 µM came to 113%. The viability at 72 h, 10 µM in series [3] (setting [6]) and in series [3] (setting [7]) was 106% in each case.
Take `O=C(OC[C@@H]1CCCN1)[C@@H]1[C@H]2C[C@H]3c4[nH]c5ccccc5c4CCN3C[C@@H]2CC[C@@H]1O` [Compound 4b, 17-α-Hydroxyyohimban-16-α-carboxylic acid (S)-Pyrrolidin-2-ylmethyl Ester]: the viability at 72 h, 1 µM in series [3] was 112%. In addition, the viability at 72 h, 10 µM in series [3] (setting [6]) and in series [3] (setting [7]) was 103% throughout.
With `CNCCOC(=O)[C@@H]1[C@H]2C[C@H]3c4[nH]c5ccccc5c4CCN3C[C@@H]2CC[C@@H]1O` [Compound 4c, 17-α-Hydroxyyohimban-16-α-carboxylic Acid 2-(Methylamino)ethyl Ester], the share remaining at 6 h, 5 μM in series [1] came out at 80 ± 1%; in series [2] (human plasma, 5 μM, 37 °C), 91 ± 5%. Further, the viability at 72 h, 1 µM in series [3] was found to be 104%. Also, the viability at 72 h, 10 µM in series [3] (setting [6]) and in series [3] (setting [7]) was 91% throughout.
Take `O=C(OC1CCNCC1)[C@@H]1[C@H]2C[C@H]3c4[nH]c5ccccc5c4CCN3C[C@@H]2CC[C@@H]1O` [Compound 4d, 17-α-Hydroxyyohimban-16-α-carboxylic Acid Piperidine-4-yl Ester]: the fraction remaining at 6 h, 5 μM in series [1] worked out at 87%; in series [2] (human plasma, 5 μM, 37 °C), 100 ± 1%. For the same compound, in the series “in vitro”, the recovery at 3 h, 5 µM was 101%. Besides, the Papp A→B at 3 h, 5 µM in “in vitro” (5 μM, pH 7.4/7.4, 3 h) is 1 ×10⁻⁶ cm/s. Besides, in “in vitro” (5 μM, pH 7.4/7.4, 3 h, read-out: Caco-2 permeability Papp B–A), the Papp B→A at 3 h, 5 µM stood at 2 ×10⁻⁶ cm/s. Moreover, the viability at 72 h, 1 µM in series [3] is 107%. Further, the viability at 72 h, 10 µM in series [3] (setting [6]) and in series [3] (setting [7]) was 104% in each case.
On to `O=C(OC1CCCNC1)[C@@H]1[C@H]2C[C@H]3c4[nH]c5ccccc5c4CCN3C[C@@H]2CC[C@@H]1O` (stereo partly drawn) [Compound 4e, 17-α-Hydroxyyohimban-16-α-carboxylic Acid Piperidine-3-yl Ester], for which the viability at 72 h, 1 µM in series [3] is 84%. Besides, the viability at 72 h, 10 µM in series [3] (setting [6]) and in series [3] (setting [7]) was 82% in each case.
In the case of `O=C(OCC1CNC1)[C@@H]1[C@H]2C[C@H]3c4[nH]c5ccccc5c4CCN3C[C@@H]2CC[C@@H]1O` [Compound 4f, 17-α-Hydroxyyohimban-16-α-carboxylic Acid Azetidin-3-ylmethyl Ester], in series [3], the viability at 72 h, 1 µM was 119%. In addition, the viability at 72 h, 10 µM in series [3] (setting [6]) and in series [3] (setting [7]) was 119% each time.
In the case of `O=C(OC[C@H]1CCN1)[C@@H]1[C@H]2C[C@H]3c4[nH]c5ccccc5c4CCN3C[C@@H]2CC[C@@H]1O` [Compound 4g, 17-α-Hydroxyyohimban-16-α-carboxylic Acid (R)-Azetidin-2-ylmethyl Ester], the share remaining at 6 h, 5 μM in series [1] came out at 134 ± 1%; in series [2] (human plasma, 5 μM, 37 °C) it was 118 ± 3%. For the same compound, the microsomal CLint at 10 µM in series [4] came to 1 ± 1 µL/min/mg; in series [5], 4 ± 1 µL/min/mg. In series [3], the viability at 72 h, 1 µM turned out to be 120%. The viability at 72 h, 10 µM in series [3] (setting [6]) and in series [3] (setting [7]) was 120% each time.
For `O=C(OC[C@@H]1CCN1)[C@@H]1[C@H]2C[C@H]3c4[nH]c5ccccc5c4CCN3C[C@@H]2CC[C@@H]1O` [Compound 4h, 17-α-Hydroxyyohimban-16-α-carboxylic acid (S)-Azetidin-2-ylmethyl Ester], the viability at 72 h, 1 µM in series [3] is 116%. The viability at 72 h, 10 µM in series [3] (setting [6]) and in series [3] (setting [7]) was 118% each time.
`O=C(OC[C@@H]1CCNC1)[C@@H]1[C@H]2C[C@H]3c4[nH]c5ccccc5c4CCN3C[C@@H]2CC[C@@H]1O` [Compound 4i, 17-α-Hydroxyyohimban-16-α-carboxylic Acid (R)-Pyrrolidin-3-ylmethyl Ester]: the fraction remaining at 6 h, 5 μM in series [1] was 62 ± 7%; in series [2] (human plasma, 5 μM, 37 °C), 88 ± 3%. For the same compound, the figures for the microsomal CLint at 10 µM in series [4] and in series [5] were 1 ± 1 µL/min/mg and 4 ± 1 µL/min/mg, respectively. Moreover, the viability at 72 h, 1 µM in series [3] was found to be 109%. Moreover, the viability at 72 h, 10 µM in series [3] (setting [6]) and in series [3] (setting [7]) was 107% in each case.
As for `O=C(OC[C@H]1CCNC1)[C@@H]1[C@H]2C[C@H]3c4[nH]c5ccccc5c4CCN3C[C@@H]2CC[C@@H]1O` [Compound 4j, 17-α-Hydroxyyohimban-16-α-carboxylic Acid (S)-Pyrrolidin-3-ylmethyl Ester], the share remaining at 6 h, 5 μM in series [1] was found to be 76 ± 3%; in series [2] (human plasma, 5 μM, 37 °C) it was 92%. Further, the microsomal CLint at 10 µM was 1 ± 1 µL/min/mg in series [4] and 2 µL/min/mg in series [5]. In series [3], the viability at 72 h, 1 µM worked out at 104%. In addition, the viability at 72 h, 10 µM in series [3] (setting [6]) and in series [3] (setting [7]) was 102% in each case.
On to `O=C(O[C@H]1CCNC1)[C@@H]1[C@H]2C[C@H]3c4[nH]c5ccccc5c4CCN3C[C@@H]2CC[C@@H]1O` [Compound 4l, 17-α-Hydroxyyohimban-16-α-carboxylic Acid (S)-Pyrrolidin-3-yl Ester], for which the fraction remaining at 6 h, 5 μM is 80 ± 1% in series [1] and 100% in series [2] (human plasma, 5 μM, 37 °C). For the same compound, in “in vitro”, the recovery at 3 h, 5 µM was 112%. In the series “in vitro” (5 μM, pH 7.4/7.4, 3 h), the Papp A→B at 3 h, 5 µM is 1 ×10⁻⁶ cm/s. In addition, in series [3], the viability at 72 h, 1 µM was 100%. Also, the viability at 72 h, 10 µM in series [3] (setting [6]) and in series [3] (setting [7]) was 94% each time.
Turning to `O=C(OC1CNC1)[C@@H]1[C@H]2C[C@H]3c4[nH]c5ccccc5c4CCN3C[C@@H]2CC[C@@H]1O` [Compound 4m, 17-α-Hydroxyyohimban-16-α-carboxylic Acid Azetidin-3-yl Ester], the fraction remaining at 6 h, 5 μM was 70 ± 2% in series [1] and 100 ± 3% in series [2] (human plasma, 5 μM, 37 °C). This compound also came in with a recovery at 3 h, 5 µM in “in vitro” of 101%. Also, the Papp A→B at 3 h, 5 µM in the series “in vitro” (5 μM, pH 7.4/7.4, 3 h) came out at 1 ×10⁻⁶ cm/s. Also, in series [3], the viability at 72 h, 1 µM was found to be 77%. Besides, the viability at 72 h, 10 µM in series [3] (setting [6]) and in series [3] (setting [7]) was 77% in each case. Besides, in series [5], the microsomal CLint at 10 µM came out at 3 ± 2 µL/min/mg.
In the case of `O=C(N[C@H]1CCNC1)[C@@H]1[C@H]2C[C@H]3c4[nH]c5ccccc5c4CCN3C[C@@H]2CC[C@@H]1O` [Compound 5a, 17-α-Hydroxyyohimban-16-α-carboxylic Acid (S)-N-(Pyrrolidin-3-yl)amide], the fraction remaining at 6 h, 5 μM in series [1] is 114 ± 2%; in series [2] (human), 100 ± 1%. Further, in series [3], the viability at 72 h, 1 µM amounted to 90%. Besides, the viability at 72 h, 10 µM in series [3] (setting [6]) and in series [3] (setting [7]) was 88% throughout.
Take `O=C(NC1CNC1)[C@@H]1[C@H]2C[C@H]3c4[nH]c5ccccc5c4CCN3C[C@@H]2CC[C@@H]1O` [Compound 5b, 17-α-Hydroxyyohimban-16-α-carboxylic Acid N-(Azetidin-3-yl)amide]: the viability at 72 h, 1 µM in series [3] was found to be 88%. The viability at 72 h, 10 µM in series [3] (setting [6]) and in series [3] (setting [7]) was 88% each time.
